Data from ChEMBL document CHEMBL1156140, “Synthesis and antitumor-evaluation of cyclopropyl-containing combretastatin analogs” (Bioorg Med Chem Lett, 2009).

Tests used:
[1] = system: MCF7; assay: Cytotoxicity against human MCF7 cells by MTT assay; format: functional, cell-based
[2] = system: HeLa; assay: Cytotoxicity against human HeLa cells by MTT assay; format: functional, cell-based

Molecule COc1ccc(/C=C\c2cc(OC)c(OC)c(OC)c2)cc1N has an IC50 ([1]; Homo sapiens, MCF7) of 3.5 nM and an IC50 ([2]; Homo sapiens, HeLa) of 0.53 nM.
COc1ccc(C#Cc2cc(OC)c(OC)c(OC)c2)cc1O showed an IC50 ([1]; Homo sapiens, MCF7) of 1640 nM and an IC50 ([2]; Homo sapiens, HeLa) of 1540 nM.
For COCOc1cc(C#Cc2cc(OC)c(OC)c(OC)c2)ccc1OC, the IC50 ([1]; Homo sapiens, MCF7) was 25600 nM and the IC50 ([2]; Homo sapiens, HeLa) was 26800 nM.
Molecule COc1ccc(C2CC2c2cc(OC)c(OC)c(OC)c2)cc1NC(=O)[C@@H](N)CO (stereo not given in full) [listing 1 of 2 here] has an IC50 ([1]; mcf7) of 63 nM and an IC50 ([2]; hela) of 32 nM.
COc1ccc(C2CC2c2cc(OC)c(OC)c(OC)c2)cc1NC(=O)OC(C)(C)C (stereo not given) was tested, and the IC50 ([1]; Homo sapiens, MCF7) was 11800 nM and the IC50 ([2]; Homo sapiens, HeLa) was 10100 nM.
With COc1ccc(C#Cc2cc(OC)c(OC)c(OC)c2)cc1NC(=O)OC(C)(C)C the IC50 ([1]; Homo sapiens, MCF7) was over 30000 nM and the IC50 ([2]; Homo sapiens, HeLa) was over 30000 nM.
COc1ccc(C2CC2c2cc(OC)c(OC)c(OC)c2)cc1OP(=O)(OCc1ccccc1)OCc1ccccc1 (stereo not given) was tested, and the IC50 ([1]; Homo sapiens, MCF7) was 10800 nM and the IC50 ([2]; Homo sapiens, HeLa) was 10200 nM.
With COc1ccc(/C=C\c2cc(OC)c(OC)c(OC)c2)cc1OP(=O)(OCc1ccccc1)OCc1ccccc1 the IC50 ([1]; Homo sapiens, MCF7) was 1170 nM and the IC50 ([2]; Homo sapiens, HeLa) was 246 nM.
With COCOc1cc(C2CC2c2cc(OC)c(OC)c(OC)c2)ccc1OC (stereo not given) the IC50 ([1]; Homo sapiens, MCF7) was 14000 nM and the IC50 ([2]; Homo sapiens, HeLa) was 24000 nM.
With COc1ccc(/C=C\c2cc(OC)c(OC)c(OC)c2)cc1NC(=O)OC(C)(C)C the IC50 ([1]; Homo sapiens, MCF7) was 3850 nM and the IC50 ([2]; Homo sapiens, HeLa) was 1170 nM.
Molecule COc1ccc(C2CC2c2cc(OC)c(OC)c(OC)c2)cc1N (stereo not given) has an IC50 ([1]; Homo sapiens, MCF7) of 212 nM and an IC50 ([2]; Homo sapiens, HeLa) of 41 nM.
Molecule COCOc1cc(/C=C\c2cc(OC)c(OC)c(OC)c2)ccc1OC has an IC50 ([1]; Homo sapiens, MCF7) of 269 nM and an IC50 ([2]; Homo sapiens, HeLa) of 197 nM.
Work on COc1ccc(C#Cc2cc(OC)c(OC)c(OC)c2)cc1N yielded an IC50 ([1]; Homo sapiens, MCF7) of over 30000 nM and an IC50 ([2]; Homo sapiens, HeLa) of over 30000 nM.
Molecule COc1ccc([C@@H]2C[C@@H]2c2cc(OC)c(OC)c(OC)c2)cc1O has an IC50 ([1]; Homo sapiens, MCF7) of 102 nM and an IC50 ([2]; Homo sapiens, HeLa) of 28 nM.
With COc1ccc(C2CC2c2cc(OC)c(OC)c(OC)c2)cc1NC(=O)[C@@H](N)CO (stereo not given in full) [listing 2 of 2 here] the IC50 ([1]; mcf7) was 670 nM and the IC50 ([2]; hela) was 432 nM.
With COc1ccc(C2CC2c2cc(OC)c(OC)c(OC)c2)cc1OP(=O)(O)O (stereo not given) the IC50 ([1]; Homo sapiens, MCF7) was 297 nM and the IC50 ([2]; Homo sapiens, HeLa) was 370 nM.
With COc1ccc(/C=C\c2cc(OC)c(OC)c(OC)c2)cc1NC(=O)[C@@H](N)CO the IC50 ([1]; mcf7) was 25 nM and the IC50 ([2]; hela) was 3.7 nM.
For COc1ccc(/C=C\c2cc(OC)c(OC)c(OC)c2)cc1O [COMBRETASTATIN A4], the IC50 ([1]; Homo sapiens, MCF7) was 2.4 nM and the IC50 ([2]; Homo sapiens, HeLa) was 0.51 nM.
For COc1ccc(/C=C\c2cc(OC)c(OC)c(OC)c2)cc1OP(=O)(O)O [FOSBRETABULIN DISODIUM], the IC50 ([1]; Homo sapiens, MCF7) was 2 nM and the IC50 ([2]; Homo sapiens, HeLa) was 0.43 nM.
COc1ccc(/C=C\c2cc(OC)c(OC)c(OC)c2)cc1NC(=O)[C@@H](N)CO [OMBRABULIN] gave an IC50 ([1]; mcf7) of 3.1 nM and an IC50 ([2]; hela) of 0.72 nM.
